Experimental data from patent publication US11759455B2, “Substituted 1H-imidazo[4,5-b]pyridin-2(3H)-ones and their use as GLUN2B receptor modulators” (JANSSEN PHARMACEUTICA NV, priority 2016, dated 2023).

Biological target: T1, human GluN1/GluN2B NMDA receptors (Homo sapiens, UniProt Q05586+Q13224)
T1 construct: expressed in transfected cells
Test: Cell-based calcium flux (FLIPR) assay on cloned human NR1/NR2B ion channels expressed in mammalian cells (standard and HTS buffer variants);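 also: stable Tet-On inducible cell line, Ca2+ influx triggered by glutamate at about EC40 plus 10 µM glycine, fluorescent dye read-out over 5 min, normalized to control wells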
Conditions: standard assay buffer (0.5 mM MgCl2 dye loading; 137 mM NaCl, 4 mM KCl assay buffer), human GluN1/GluN2B cells, read-out: NR2B IC50 (μM) standard assay

T1 sequence (Q13224 27-1484, other chains not shown): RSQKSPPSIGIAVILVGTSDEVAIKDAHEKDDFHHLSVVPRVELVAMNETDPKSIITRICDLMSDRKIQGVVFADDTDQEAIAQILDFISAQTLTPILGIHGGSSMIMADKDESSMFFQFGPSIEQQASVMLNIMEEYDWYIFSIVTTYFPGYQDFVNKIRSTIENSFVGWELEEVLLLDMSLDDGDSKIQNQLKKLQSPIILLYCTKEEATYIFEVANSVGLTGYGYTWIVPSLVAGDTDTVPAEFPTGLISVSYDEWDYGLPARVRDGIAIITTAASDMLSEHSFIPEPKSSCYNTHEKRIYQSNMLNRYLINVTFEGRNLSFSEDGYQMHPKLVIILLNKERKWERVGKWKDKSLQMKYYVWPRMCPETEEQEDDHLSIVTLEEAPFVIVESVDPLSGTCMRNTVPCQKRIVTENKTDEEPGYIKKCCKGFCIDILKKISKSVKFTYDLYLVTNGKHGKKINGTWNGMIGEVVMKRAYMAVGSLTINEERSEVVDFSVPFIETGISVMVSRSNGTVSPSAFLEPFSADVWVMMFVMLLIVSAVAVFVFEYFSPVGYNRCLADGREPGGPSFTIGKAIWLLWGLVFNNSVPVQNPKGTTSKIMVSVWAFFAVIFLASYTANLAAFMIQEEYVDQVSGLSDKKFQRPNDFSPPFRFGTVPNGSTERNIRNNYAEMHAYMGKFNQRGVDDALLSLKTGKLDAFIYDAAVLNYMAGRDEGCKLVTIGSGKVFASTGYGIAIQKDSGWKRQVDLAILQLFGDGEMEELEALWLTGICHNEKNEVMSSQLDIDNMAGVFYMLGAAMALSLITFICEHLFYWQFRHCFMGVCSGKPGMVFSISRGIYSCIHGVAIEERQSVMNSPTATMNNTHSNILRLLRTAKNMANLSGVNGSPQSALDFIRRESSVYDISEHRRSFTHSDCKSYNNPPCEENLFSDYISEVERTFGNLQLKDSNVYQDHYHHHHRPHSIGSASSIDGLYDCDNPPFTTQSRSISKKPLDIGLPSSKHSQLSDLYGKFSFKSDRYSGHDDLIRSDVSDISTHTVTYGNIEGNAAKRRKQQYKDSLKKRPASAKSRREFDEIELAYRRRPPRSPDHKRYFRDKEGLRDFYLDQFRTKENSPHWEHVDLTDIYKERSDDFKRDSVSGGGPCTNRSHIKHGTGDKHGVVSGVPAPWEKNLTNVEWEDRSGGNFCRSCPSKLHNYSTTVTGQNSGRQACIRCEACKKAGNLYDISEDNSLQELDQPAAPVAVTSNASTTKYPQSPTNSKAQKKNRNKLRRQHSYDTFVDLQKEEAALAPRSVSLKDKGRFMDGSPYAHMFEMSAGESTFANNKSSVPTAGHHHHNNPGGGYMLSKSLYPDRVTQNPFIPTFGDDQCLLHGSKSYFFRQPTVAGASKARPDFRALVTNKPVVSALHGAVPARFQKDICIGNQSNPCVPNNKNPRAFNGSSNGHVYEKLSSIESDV

| IC50 | SMILES |
| --- | --- |
| 0.127 µM | O=c1[nH]c2ncc(-c3cccc(C(F)(F)F)c3)cc2n1CC1CCCO1 (racemic) [Example 24, (R/S)-1-(Tetrahydrofuran-2-ylmethyl)-6-[3-(trifluoromethyl)phenyl]-3H-imidazo[4,5-b]pyridin-2-one] |
| 0.034 µM | O=c1[nH]c2ncc(-c3cccc(C(F)(F)F)c3)cc2n1CC1CCO1 (racemic) [Example 216, (R/S)-1-(Oxetan-2-ylmethyl)-6-[3-(trifluoromethyl)phenyl]-3H-imidazo[4,5-b]pyridin-2-one] |
| 6.49 µM | O=c1[nH]c2ncc(-c3cccc(C(F)(F)F)c3)cc2n1CC1CNCCO1 (racemic) [Example 217, (R/S)-1-(Morpholin-2-ylmethyl)-6-[3-(trifluoromethyl)phenyl]-3H-imidazo[4,5-b]pyridin-2-one] |
| 0.552 µM | O=c1[nH]c2ncc(-c3cccc(C(F)(F)F)c3)cc2n1CC1CCCCO1 (racemic) [Example 218, (R/S)-1-(Tetrahydropyran-2-ylmethyl)-6-[3-(trifluoromethyl)phenyl]-3H-imidazo[4,5-b]pyridin-2-one] |
| 0.4 µM | O=c1[nH]c2ncc(-c3cccc(C(F)(F)F)c3)cc2n1CC1CC1(F)F (racemic) [Example 225, (R/S)-1-[(2,2-Difluorocyclopropyl)methyl]-6-[3-(trifluoromethyl)phenyl]-3H-imidazo[4,5-b]pyridin-2-one] |
| 0.063 µM | O=c1[nH]c2ncc(-c3cccc(C(F)(F)F)c3)cc2n1CC1CCN1 (racemic) [Example 263, (R/S)-1-(Azetidin-2-ylmethyl)-6-[3-(trifluoromethyl)phenyl]-3H-imidazo[4,5-b]pyridin-2-one] |
| 0.044 µM | O=c1[nH]c2ncc(-c3cccc(C(F)(F)F)c3F)cc2n1CC1CCN1 (racemic) [Example 264, (R/S)-1-(Azetidin-2-ylmethyl)-6-[2-fluoro-3-(trifluoromethyl)phenyl]-3H-imidazo[4,5-b]pyridin-2-one] |
| 0.397 µM | O=c1[nH]c2ncc(-c3ccccc3)cc2n1CC1CCN1 (racemic) [Example 265, (R/S)-1-(Azetidin-2-ylmethyl)-6-phenyl-3H-imidazo[4,5-b]pyridin-2-one] |
| 0.173 µM | O=c1[nH]c2ncc(-c3ccc(F)cc3)cc2n1CC1CCN1 (racemic) [Example 266, (R/S)-1-(Azetidin-2-ylmethyl)-6-(4-fluorophenyl)-3H-imidazo[4,5-b]pyridin-2-one] |
| 0.442 µM | O=c1[nH]c2ncc(-c3ccc(F)c(C(F)(F)F)c3)cc2n1CC1CCN1 (racemic) [Example 267, (R/S)-1-(Azetidin-2-ylmethyl)-6-[4-fluoro-3-(trifluoromethyl)phenyl]-3H-imidazo[4,5-b]pyridin-2-one] |
| 0.041 µM | O=c1[nH]c2ncc(-c3cccc(Cl)c3Cl)cc2n1CC1CCN1 (racemic) [Example 268, (R/S)-1-(Azetidin-2-ylmethyl)-6-(2,3-dichlorophenyl)-3H-imidazo[4,5-b]pyridin-2-one] |
| 0.046 µM | O=c1[nH]c2ncc(-c3ccc(F)c(C(F)(F)F)c3)cc2n1CC1CCO1 (racemic) [Example 271, (R/S)-6-[4-Fluoro-3-(trifluoromethyl)phenyl]-1-(oxetan-2-ylmethyl)-3H-imidazo[4,5-b]pyridin-2-one] |
| 0.32 µM | CCC(O)Cn1c(=O)[nH]c2ncc(-c3ccc(OC)cc3)cc21 (single isomer, unassigned) [Example 4, (S*)-1-(2-Hydroxybutyl)-6-(4-methoxyphenyl)-3H-imidazo[4,5-b]pyridin-2-one] |

Further lines, the molecule ahead of its results:

| SMILES | IC50 |
| --- | --- |
| O=c1[nH]c2ncc(-c3cccc(C(F)(F)F)c3)cc2n1CC(O)C1CC1 (racemic) [Example 31, (R/S)-1-(2-Cyclopropyl-2-hydroxy-ethyl)-6-[3-(trifluoromethyl)phenyl]-3H-imidazo[4,5-b]pyridin-2-one] | 0.151 µM |
| Cc1cc(F)ccc1-c1cnc2c(c1)n(CC1CCO1)c(=O)n2C (racemic) [Example 33, (R/S)-6-(4-Fluoro-2-methyl-phenyl)-3-methyl-1-(oxetan-2-ylmethyl)imidazo[4,5-b]pyridin-2-one] | 1.23 µM |
| Cn1c(=O)n(CC2CCO2)c2cc(-c3cccc(C(F)(F)F)c3)cnc21 (racemic) [Example 133, (R/S)-3-methyl-1-(oxetan-2-ylmethyl)-6-[3-(trifluoromethyl)phenyl]imidazo[4,5-b]pyridin-2-one] | 0.211 µM |
| CC(C(=O)NC1CC1)n1c(=O)[nH]c2ncc(-c3cccc(C(F)(F)F)c3)cc21 (racemic) [Example 202, (R/S)—N-Cyclopropyl-2-[2-oxo-6-[3-(trifluoromethyl)phenyl]-3H-imidazo[4,5-b]pyridin-1-yl]propanamide] | 7.32 µM |
| CC(C(=O)N1CCC1)n1c(=O)[nH]c2ncc(-c3cccc(C(F)(F)F)c3)cc21 (racemic) [Example 203, (R/S)-1-[2-(Azetidin-1-yl)-1-methyl-2-oxo-ethyl]-6-[3-(trifluoromethyl)phenyl]-3H-imidazo[4,5-1D]pyridin-2-one] | 1.1 µM |
| Cn1c(=O)n(CC2CCN2)c2cc(-c3cccc(C(F)(F)F)c3)cnc21 (racemic) [Example 245, (R/S)-1-(Azetidin-2-ylmethyl)-3-methyl-6-[3-(trifluoromethyl)phenyl]imidazo[4,5-b]pyridin-2-one] | 0.409 µM |

Same assay, conditions: standard assay buffer (0.5 mM MgCl2 in dye loading buffer; 137 mM NaCl, 4 mM KCl in assay buffer), human GluN1/GluN2B, read-out: NR2B IC50 (μM) standard assay

| IC50 | SMILES |
| --- | --- |
| 1.9 µM | CCC(O)Cn1c(=O)n(C)c2ncc(-c3ccc(F)c(F)c3)cc21 (racemic) [Example 333, (R/S)-6-(3,4-Difluorophenyl)-1-(2-hydroxybutyl)-3-methyl-imidazo[4,5-b]pyridin-2-one] |
| 0.031 µM | CCC(O)Cn1c(=O)[nH]c2ncc(-c3ccc(F)c(C)c3)cc21 (racemic) [Example 334, (R/S)-6-(4-Fluoro-3-methyl-phenyl)-1-(2-hydroxybutyl)-3H-imidazo[4,5-b]pyridin-2-one] |
| 0.054 µM | CCC(O)Cn1c(=O)[nH]c2ncc(-c3cccc(C)c3)cc21 (racemic) [Example 335, (R/S)-1-(2-Hydroxybutyl)-6-(m-tolyl)-3H-imidazo[4,5-b]pyridin-2-one] |
| 0.015 µM | CCC(O)Cn1c(=O)[nH]c2ncc(-c3ccc(F)c(C)c3F)cc21 (racemic) [Example 336, (R/S)-6-(2,4-Difluoro-3-methyl-phenyl)-1-(2-hydroxybutyl)-3H-imidazo[4,5-b]pyridin-2-one] |
| 0.119 µM | CCC(O)Cn1c(=O)[nH]c2ncc(-c3cccc(C(F)(F)F)c3)cc21 (racemic) [Example 337, (R/S)-1-(2-Hydroxybutyl)-6-[3-(trifluoromethyl)phenyl]-3H-imidazo[4,5-b]pyridin-2-one] |
| 0.687 µM | CC(C)C(O)Cn1c(=O)[nH]c2ncc(-c3cccc(C(F)(F)F)c3)cc21 (racemic) [Example 338, (R/S)-1-(2-Hydroxy-3-methyl-butyl)-6-[3-(trifluoromethyl)phenyl]-3H-imidazo[4,5-b]pyridin-2-one] |
| 0.486 µM | COCCC(O)Cn1c(=O)n(C)c2ncc(-c3ccc(F)c(C)c3)cc21 (racemic) [Example 393, (R/S)-6-(4-Fluoro-3-methyl-phenyl)-1-(2-hydroxy-4-methoxy-butyl)-3-methyl-imidazo[4,5-b]pyridin-2-one] |
| 0.128 µM | Cn1c(=O)n(CC2CCO2)c2cc(-c3cccc(C(F)F)c3)cnc21 (racemic) [Example 394, (R/S)-6-[3-(Difluoromethyl)phenyl]-3-methyl-1-(oxetan-2-ylmethyl)imidazo [4,5-b]pyridin-2-one] |
| 1.2 µM | Cc1cc(-c2cnc3c(c2)n(CC2CCO2)c(=O)n3C)ccc1F (racemic) [Example 395, (R/S)-6-(4-Fluoro-3-methyl-phenyl)-3-methyl-1-(oxetan-2-ylmethyl)imidazo[4,5-b]pyridin-2-one] |
| 0.135 µM | Cn1c(=O)n(CC2CCO2)c2cc(-c3cccc(C(F)(F)F)c3F)cnc21 (racemic) [Example 396, (R/S)-6-[2-Fluoro-3-(trifluoromethyl)phenyl]-3-methyl-1-(oxetan-2-ylmethyl)imidazo[4,5-b]pyridin-2-one] |
| 0.228 µM | Cn1c(=O)n(CC2CCO2)c2cc(-c3cccc(Cl)c3)cnc21 (racemic) [Example 397, (R/S)-6-(3-Chlorophenyl)-3-methyl-1-(oxetan-2-ylmethyl)imidazo[4,5-b]pyridin-2-one] |
| 2.84 µM | Cc1c(-c2cnc3c(c2)n(CC2CCO2)c(=O)n3C)cccc1C(F)(F)F (racemic) [Example 398, (R/S)-3-Methyl-6-[2-methyl-3-(trifluoromethyl)phenyl]-1-(oxetan-2-ylmethyl)imidazo[4,5-b]pyridin-2-one] |
| 5.1 µM | Cc1c(-c2cnc3c(c2)n(CC(O)CCO)c(=O)n3C)cccc1C(F)(F)F (racemic) [Example 399, (R/S)-1-(2,4-Dihydroxybutyl)-3-methyl-6-[2-methyl-3-(trifluoromethyl)phenyl]imidazo[4,5-b]pyridin-2-one] |

Biological target: T2, human GluN1/GluN2B NMDA receptors (Homo sapiens, UniProt Q13224)
T2 construct: expressed in transfected cells
T2 sequence (Q13224 27-1484, other chains not shown): as above
Test: as above
Conditions: standard assay buffer (0.5 mM MgCl2 in dye loading buffer; 137 mM NaCl, 4 mM KCl in assay buffer), human GluN1/GluN2B, read-out: NR2B IC50 (μM) standard assay

| IC50 | SMILES |
| --- | --- |
| 0.336 µM | CCOc1ccc(F)cc1-c1cnc2[nH]c(=O)n(CC(=O)NC3CC3)c2c1 [Example 607, N-Cyclopropyl-2-[6-(2-ethoxy-5-fluoro-phenyl)-2-oxo-3H-imidazo[4,5-b]pyridin-1-yl]acetamide] |
| 1.79 µM | COCCNC(=O)Cn1c(=O)[nH]c2ncc(-c3cc(F)cc(F)c3)cc21 [Example 610, 2-[6-(3,5-Difluorophenyl)-2-oxo-3H-imidazo[4,5-b]pyridin-1-yl]-N-(2-methoxyethyl)acetamide] |
| 0.204 µM | CC(C)(C)C(=O)Cn1c(=O)[nH]c2ncc(-c3cccc(C(F)(F)F)c3)cc21 [Example 611, 1-(3,3-Dimethyl-2-oxo-butyl)-6-[3-(trifluoromethyl)phenyl]-3H-imidazo[4,5-b]pyridin-2-one] |
| 0.116 µM | COCCNC(=O)Cn1c(=O)[nH]c2ncc(-c3ccc(F)c(Cl)c3)cc21 [Example 612, 2-[6-(3-Chloro-4-fluoro-phenyl)-2-oxo-3H-imidazo[4,5-b]pyridin-1-yl]-N-(2-methoxyethyl)acetamide] |
